Results as given in ChEMBL document CHEMBL4507319 (2021).

Experiments:
[1] = molecular target: Calcium/calmodulin-dependent protein kinase type 1D (Homo sapiens) (UniProt Q8IU85); conditions: Compound concentration 1000.0 nM
[2] = molecular target: Casein kinase I isoform delta (Homo sapiens) (UniProt P48730); conditions: Compound concentration 1000.0 nM
[3] = molecular target: Epithelial discoidin domain-containing receptor 1 (Homo sapiens) (UniProt Q08345); conditions: Compound concentration 1000.0 nM
Sequence of Epithelial discoidin domain-containing receptor 1 (Homo sapiens) (Q08345 whole entry, the tested form may be a part): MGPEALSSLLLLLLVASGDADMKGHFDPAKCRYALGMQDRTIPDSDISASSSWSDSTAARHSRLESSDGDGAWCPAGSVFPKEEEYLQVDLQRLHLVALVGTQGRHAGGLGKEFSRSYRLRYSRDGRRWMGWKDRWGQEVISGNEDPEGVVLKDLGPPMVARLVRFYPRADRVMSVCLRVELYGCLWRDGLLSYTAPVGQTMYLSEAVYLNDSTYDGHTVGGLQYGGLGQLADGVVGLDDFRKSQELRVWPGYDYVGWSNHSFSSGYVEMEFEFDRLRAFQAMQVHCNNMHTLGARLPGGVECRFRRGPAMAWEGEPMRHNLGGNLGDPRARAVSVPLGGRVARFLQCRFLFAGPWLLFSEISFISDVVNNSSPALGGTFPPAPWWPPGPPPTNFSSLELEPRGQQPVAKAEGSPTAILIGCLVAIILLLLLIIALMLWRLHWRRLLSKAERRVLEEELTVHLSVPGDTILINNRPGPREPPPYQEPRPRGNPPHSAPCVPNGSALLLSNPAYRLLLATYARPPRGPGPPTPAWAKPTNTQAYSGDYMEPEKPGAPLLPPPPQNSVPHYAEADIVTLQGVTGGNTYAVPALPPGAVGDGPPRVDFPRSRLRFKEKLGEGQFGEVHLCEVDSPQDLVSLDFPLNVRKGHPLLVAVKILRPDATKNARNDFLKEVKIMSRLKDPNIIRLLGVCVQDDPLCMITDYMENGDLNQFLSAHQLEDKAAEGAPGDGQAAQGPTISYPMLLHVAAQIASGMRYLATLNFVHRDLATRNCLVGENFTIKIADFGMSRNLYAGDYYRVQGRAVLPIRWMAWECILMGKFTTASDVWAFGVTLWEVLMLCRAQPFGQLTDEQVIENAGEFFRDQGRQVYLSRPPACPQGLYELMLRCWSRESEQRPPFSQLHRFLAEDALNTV

[4] = system: Epidermal growth factor receptor (Homo sapiens), P00533 [L861Q]; conditions: Compound concentration 1000.0 nM
[5] = system: Fibroblast growth factor receptor 3 (Homo sapiens), P22607 [G697C]; conditions: Compound concentration 1000.0 nM
[6] = system: Receptor-type tyrosine-protein kinase FLT3 (Homo sapiens), P36888 [N841I]; conditions: Compound concentration 1000.0 nM
[7] = molecular target: T1, Homeodomain-interacting protein kinase 4 (Homo sapiens) (UniProt Q8NE63); conditions: Compound concentration 1000.0 nM
T1 sequence (whole entry): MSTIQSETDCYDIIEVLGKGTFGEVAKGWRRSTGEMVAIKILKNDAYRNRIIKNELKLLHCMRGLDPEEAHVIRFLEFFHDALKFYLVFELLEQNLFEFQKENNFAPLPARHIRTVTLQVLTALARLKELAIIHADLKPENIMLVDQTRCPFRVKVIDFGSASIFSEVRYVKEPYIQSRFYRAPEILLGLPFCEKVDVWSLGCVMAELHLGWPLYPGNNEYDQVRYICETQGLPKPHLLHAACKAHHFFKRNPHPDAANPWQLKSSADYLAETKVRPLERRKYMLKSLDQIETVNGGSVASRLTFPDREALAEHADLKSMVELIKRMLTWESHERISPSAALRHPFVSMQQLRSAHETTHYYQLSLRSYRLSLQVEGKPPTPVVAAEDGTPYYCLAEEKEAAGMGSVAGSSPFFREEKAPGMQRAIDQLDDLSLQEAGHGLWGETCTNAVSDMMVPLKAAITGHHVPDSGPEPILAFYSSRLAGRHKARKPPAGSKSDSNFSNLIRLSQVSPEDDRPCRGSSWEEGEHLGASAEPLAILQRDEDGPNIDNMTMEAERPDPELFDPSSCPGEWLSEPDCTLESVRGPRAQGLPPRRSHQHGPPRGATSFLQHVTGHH

[8] = system: Mast/stem cell growth factor receptor Kit (Homo sapiens), P10721 [V559D,V654A]; conditions: Compound concentration 1000.0 nM
Sequence of Mast/stem cell growth factor receptor Kit (Homo sapiens), P10721 [V559D,V654A] (P10721 whole entry V559D/V654A): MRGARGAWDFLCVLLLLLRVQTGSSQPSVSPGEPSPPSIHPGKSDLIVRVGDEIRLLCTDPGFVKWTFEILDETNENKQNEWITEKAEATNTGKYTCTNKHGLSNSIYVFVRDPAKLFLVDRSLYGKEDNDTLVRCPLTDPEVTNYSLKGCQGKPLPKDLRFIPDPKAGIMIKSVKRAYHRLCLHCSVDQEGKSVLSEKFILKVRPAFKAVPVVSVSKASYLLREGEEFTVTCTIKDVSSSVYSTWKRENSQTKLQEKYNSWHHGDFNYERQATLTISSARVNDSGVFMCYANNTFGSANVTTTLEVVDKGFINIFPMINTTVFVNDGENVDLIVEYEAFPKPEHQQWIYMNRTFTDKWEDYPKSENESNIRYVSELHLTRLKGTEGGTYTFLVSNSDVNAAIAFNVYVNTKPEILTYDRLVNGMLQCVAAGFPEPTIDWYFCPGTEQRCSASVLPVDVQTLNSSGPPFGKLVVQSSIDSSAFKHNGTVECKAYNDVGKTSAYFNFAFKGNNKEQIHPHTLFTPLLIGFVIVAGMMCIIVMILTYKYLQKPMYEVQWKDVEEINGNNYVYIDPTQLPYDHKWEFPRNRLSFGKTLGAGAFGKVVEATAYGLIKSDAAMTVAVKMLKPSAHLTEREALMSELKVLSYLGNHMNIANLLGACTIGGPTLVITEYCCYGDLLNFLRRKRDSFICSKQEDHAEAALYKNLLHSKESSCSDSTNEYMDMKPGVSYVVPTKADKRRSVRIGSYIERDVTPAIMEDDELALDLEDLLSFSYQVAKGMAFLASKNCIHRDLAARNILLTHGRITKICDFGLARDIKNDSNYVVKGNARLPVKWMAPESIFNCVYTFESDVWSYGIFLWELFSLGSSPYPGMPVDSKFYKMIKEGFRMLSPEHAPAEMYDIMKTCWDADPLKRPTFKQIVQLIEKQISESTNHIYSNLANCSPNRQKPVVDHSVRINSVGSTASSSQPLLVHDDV

[9] = molecular target: Mast/stem cell growth factor receptor Kit (Homo sapiens) (UniProt P10721); conditions: Compound concentration 1000.0 nM
Sequence of Mast/stem cell growth factor receptor Kit (Homo sapiens) (P10721 whole entry): as the sequence (P10721 whole entry V559D/V654A) above, with D559V, A654V counted along it

[10] = molecular target: T2, Mitogen-activated protein kinase kinase kinase kinase 3 (Homo sapiens) (UniProt Q8IVH8); conditions: Compound concentration 1000.0 nM
T2 sequence (whole entry): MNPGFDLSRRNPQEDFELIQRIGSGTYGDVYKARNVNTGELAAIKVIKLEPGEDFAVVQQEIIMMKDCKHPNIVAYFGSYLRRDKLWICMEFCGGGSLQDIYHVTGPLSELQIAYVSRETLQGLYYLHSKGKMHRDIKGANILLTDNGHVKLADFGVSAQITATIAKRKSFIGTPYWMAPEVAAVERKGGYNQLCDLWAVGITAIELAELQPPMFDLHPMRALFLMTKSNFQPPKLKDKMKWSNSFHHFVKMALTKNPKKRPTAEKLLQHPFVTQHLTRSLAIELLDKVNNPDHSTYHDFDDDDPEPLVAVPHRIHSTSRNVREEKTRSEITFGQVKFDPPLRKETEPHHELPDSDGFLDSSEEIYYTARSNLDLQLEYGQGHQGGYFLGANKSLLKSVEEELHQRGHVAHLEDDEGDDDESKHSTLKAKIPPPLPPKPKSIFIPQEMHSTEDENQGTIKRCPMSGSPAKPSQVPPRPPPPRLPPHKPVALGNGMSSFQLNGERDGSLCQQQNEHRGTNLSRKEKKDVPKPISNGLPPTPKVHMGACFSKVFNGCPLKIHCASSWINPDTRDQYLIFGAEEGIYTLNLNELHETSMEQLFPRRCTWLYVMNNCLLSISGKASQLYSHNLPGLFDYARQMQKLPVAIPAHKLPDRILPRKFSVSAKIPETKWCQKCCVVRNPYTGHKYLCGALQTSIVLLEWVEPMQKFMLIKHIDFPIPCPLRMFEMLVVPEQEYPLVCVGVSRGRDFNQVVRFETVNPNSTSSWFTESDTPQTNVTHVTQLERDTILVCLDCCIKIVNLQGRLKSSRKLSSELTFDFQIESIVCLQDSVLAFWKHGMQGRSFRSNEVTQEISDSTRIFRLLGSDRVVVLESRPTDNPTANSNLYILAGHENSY

[11] = molecular target: Serine/threonine-protein kinase Nek5 (Homo sapiens) (UniProt Q6P3R8); conditions: Compound concentration 1000.0 nM
[12] = molecular target: Phosphorylase b kinase gamma catalytic chain, skeletal muscle/heart isoform (Homo sapiens) (UniProt Q16816); conditions: Compound concentration 1000.0 nM
Sequence of Phosphorylase b kinase gamma catalytic chain, skeletal muscle/heart isoform (Homo sapiens) (Q16816 whole entry, looked up, canonical isoform): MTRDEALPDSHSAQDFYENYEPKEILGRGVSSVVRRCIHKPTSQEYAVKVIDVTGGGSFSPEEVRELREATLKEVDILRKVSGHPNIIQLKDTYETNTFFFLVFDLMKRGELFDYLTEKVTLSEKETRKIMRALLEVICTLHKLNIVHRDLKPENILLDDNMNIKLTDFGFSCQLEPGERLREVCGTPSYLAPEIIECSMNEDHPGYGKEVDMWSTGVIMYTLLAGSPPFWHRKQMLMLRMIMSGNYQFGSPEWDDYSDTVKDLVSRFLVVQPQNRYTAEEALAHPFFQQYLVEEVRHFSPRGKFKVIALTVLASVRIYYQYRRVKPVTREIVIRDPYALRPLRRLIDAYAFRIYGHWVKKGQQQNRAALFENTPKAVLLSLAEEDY

[13] = molecular target: Serine/threonine-protein kinase PLK1 (Homo sapiens) (UniProt P53350); conditions: Compound concentration 1000.0 nM
Sequence of Serine/threonine-protein kinase PLK1 (Homo sapiens) (P53350 whole entry): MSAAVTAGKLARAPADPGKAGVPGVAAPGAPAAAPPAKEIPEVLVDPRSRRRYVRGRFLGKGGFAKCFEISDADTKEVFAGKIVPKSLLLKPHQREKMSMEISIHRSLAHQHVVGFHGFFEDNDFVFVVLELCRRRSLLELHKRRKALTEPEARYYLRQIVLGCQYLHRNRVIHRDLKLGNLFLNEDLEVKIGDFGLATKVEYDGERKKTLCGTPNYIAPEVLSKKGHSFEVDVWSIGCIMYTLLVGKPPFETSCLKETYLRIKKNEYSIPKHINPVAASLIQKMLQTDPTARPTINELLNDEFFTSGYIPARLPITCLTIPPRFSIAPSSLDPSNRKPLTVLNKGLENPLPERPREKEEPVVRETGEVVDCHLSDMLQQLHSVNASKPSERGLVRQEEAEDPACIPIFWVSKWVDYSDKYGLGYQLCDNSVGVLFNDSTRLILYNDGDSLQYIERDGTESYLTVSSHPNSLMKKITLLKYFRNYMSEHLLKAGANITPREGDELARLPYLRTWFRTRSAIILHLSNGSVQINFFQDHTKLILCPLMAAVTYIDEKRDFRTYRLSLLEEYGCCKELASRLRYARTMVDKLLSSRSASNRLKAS

[14] = molecular target: T3, Tyrosine-protein kinase Tec (Homo sapiens) (UniProt P42680); conditions: Compound concentration 1000.0 nM
T3 sequence (whole entry): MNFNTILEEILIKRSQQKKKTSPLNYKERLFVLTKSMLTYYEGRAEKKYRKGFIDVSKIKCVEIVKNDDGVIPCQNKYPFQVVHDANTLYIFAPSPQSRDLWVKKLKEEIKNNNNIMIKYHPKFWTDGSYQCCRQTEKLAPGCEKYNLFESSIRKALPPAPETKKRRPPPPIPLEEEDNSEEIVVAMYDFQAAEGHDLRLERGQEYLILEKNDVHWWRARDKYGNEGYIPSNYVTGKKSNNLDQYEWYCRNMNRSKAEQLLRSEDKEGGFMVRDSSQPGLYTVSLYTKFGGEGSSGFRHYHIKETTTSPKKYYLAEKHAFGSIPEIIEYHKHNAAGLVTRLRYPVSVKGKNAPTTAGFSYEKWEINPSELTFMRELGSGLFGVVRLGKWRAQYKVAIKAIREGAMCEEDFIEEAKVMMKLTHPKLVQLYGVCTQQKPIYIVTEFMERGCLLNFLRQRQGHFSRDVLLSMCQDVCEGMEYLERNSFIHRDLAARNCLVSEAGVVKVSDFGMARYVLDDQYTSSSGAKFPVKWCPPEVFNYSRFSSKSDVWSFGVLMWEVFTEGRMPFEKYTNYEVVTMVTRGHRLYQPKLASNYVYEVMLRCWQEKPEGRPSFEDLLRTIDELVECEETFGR

[15] = molecular target: 5-hydroxytryptamine receptor 3A (Homo sapiens) (UniProt P46098); conditions: Compound concentration 10.0 uM

Sequence of Casein kinase I isoform delta (Homo sapiens) (P48730 whole entry, looked up, the tested form may be a part, canonical isoform): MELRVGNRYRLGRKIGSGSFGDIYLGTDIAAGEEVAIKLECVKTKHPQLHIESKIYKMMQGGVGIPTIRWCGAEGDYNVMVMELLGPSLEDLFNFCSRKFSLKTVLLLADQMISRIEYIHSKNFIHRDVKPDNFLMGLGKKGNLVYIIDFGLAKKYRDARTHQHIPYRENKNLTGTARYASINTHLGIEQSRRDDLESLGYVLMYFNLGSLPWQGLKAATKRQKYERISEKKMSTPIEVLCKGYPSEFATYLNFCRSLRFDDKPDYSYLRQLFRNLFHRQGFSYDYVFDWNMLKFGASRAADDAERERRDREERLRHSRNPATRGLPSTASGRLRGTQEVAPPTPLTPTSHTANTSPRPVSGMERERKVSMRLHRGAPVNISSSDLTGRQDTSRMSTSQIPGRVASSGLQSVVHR
Sequence of Calcium/calmodulin-dependent protein kinase type 1D (Homo sapiens) (Q8IU85 whole entry, looked up, canonical isoform): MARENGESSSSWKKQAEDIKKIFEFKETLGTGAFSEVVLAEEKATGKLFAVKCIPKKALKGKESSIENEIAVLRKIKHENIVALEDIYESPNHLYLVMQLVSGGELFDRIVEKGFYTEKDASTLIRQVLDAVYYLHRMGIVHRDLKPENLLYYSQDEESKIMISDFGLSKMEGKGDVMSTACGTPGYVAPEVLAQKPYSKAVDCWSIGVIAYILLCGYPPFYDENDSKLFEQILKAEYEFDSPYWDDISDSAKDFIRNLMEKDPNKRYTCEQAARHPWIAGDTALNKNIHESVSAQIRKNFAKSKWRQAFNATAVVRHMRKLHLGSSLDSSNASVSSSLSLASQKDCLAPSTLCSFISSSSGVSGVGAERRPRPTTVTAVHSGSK

CCc1ccccc1C(=O)Nc1n[nH]c2c(C)c(F)c(C3C(C#N)=C(C)N(C)C(C)=C3C#N)cc12 [BAY-3827]
residual activity [1]: 87%
residual activity [2]: 100%
residual activity [3]: 48%
residual activity [4]: 43%
residual activity [5]: 74%
residual activity [6]: 0%
residual activity [7]: 100%
residual activity [8]: 100%
residual activity [9]: 100%
residual activity [10]: 100%
residual activity [11]: 100%
residual activity [12]: 44%
residual activity [13]: 100%
residual activity [14]: 91%
inhibition [15]: 2.79%

CC1=C(C#N)C(c2ccc3c(c2)c(NC(=O)c2ccccc2C)nn3C)C(C#N)=C(C)N1 [BAY-974]
residual activity [1]: 93%
residual activity [2]: 89%
residual activity [3]: 74%
residual activity [4]: 69%
residual activity [5]: 93%
residual activity [6]: 74%
residual activity [7]: 80%
residual activity [8]: 99%
residual activity [9]: 77%
residual activity [10]: 80%
residual activity [11]: 100%
residual activity [12]: 91%
residual activity [13]: 85%
residual activity [14]: 100%
inhibition [15]: 9.93%
